Measured values as given in patent US10537626B2, “HSP70-derived peptide, pharmaceutical composition for treating or preventing cancer using same, immunity inducer, and method for producing antigen presenting cell” (Cytlimic Inc., priority 2014, dated 2020).
Ends that are not written are not given here.

Key:
HLA-A*02:01 molecule = HLA-A*02:01 molecule (Homo sapiens, UniProt P04439, D140Y/D185E/D98H/E176V/E277Q/G131W/G231S/I119V/I121R/I166T/I218V/L300P/L318F/N151K/N90K/P208A/P217A/Q86G/Q94H/R138H/R169H/T345S); assay: Binding experiment of peptide to HLA-A*02:01 molecule (T2 cells, flow cytometry); details: for Binding Experiment Data To A*02:01: T2 cells, 37° C. 4 hours, negative values as printed (apparently log Kd)
Procedure: T2 cells and purified β2m were added to stepwise dilution series of a peptide whose binding capacity was to be measured, which was then incubated at 37° C. for 4 hours.
Thereafter, the amount of fluorescence per cell was measured using a flow cytometer, and the dissociation constant, Kd value, was calculated using a method as published in a paper by the present inventor (Udaka et al., Immunogenetics, 51, 816-828, 2000).

HLA-A*24:02 molecule = HLA-A*24:02 molecule (Homo sapiens, UniProt P04439, D101N/D140Y/D185E/E176V/E190D/F33S/G103R/G107R/I119L/I121M/I306V/K335N/L105A/L180Q/L300P/N151K/N90K/Q86E/Q94H/R106L/R138H/R89G/T104I/T345S/V100E/W191G/Y123F); assay: Binding experiment of peptide to HLA-A*24:02 molecule (C1R-A24 cells, flow cytometry); details: for Binding Experiment Data To A*24:02: C1R-A24 cells, on ice 4 hours, negative values as printed (apparently log Kd)
Procedure: The binding capacity of each peptide to the HLA-A*24:02 molecule as the product of HLA-A*24:02 gene was measured using C1R-A24 cells expressing the HLA-A*24:02 molecule (the cells prepared by Prof. Masafumi Takeguchi, Kumamoto University were gifted by Assoc. Prof. Masaki Yasukawa, Ehime University with permission).
First, C1R-A24 cells were exposed to acidic conditions of pH 3.3 for 30 seconds to dissociate and remove endogenous peptides which were originally bound to the HLA-A*24:02 molecule and a light chain, β2m, which was commonly associated with HLA class I molecules. After neutralization, purified β2m was added to the C1R-A24 cells, which was then added to peptide dilution series. The mixtures were each then incubated on ice for 4 hours. The 3-molecule assembly (MHC-pep) consisting of the HLA-A*24:02 molecule, the peptide, and β2 m which had been reassociated during the incubation was stained with a fluorescent labeled monoclonal antibody, 17A12, recognizing the assembly.
Subsequently, the number of MHC-pep's per C1R-A24 cell (which is proportional to the fluorescent intensity of the above fluorescent antibody) was quantitatively measured using a fluorescent cell analyzer, FACScan (Becton, Dickinson and Company). The binding dissociation constant, Kd value, between the HLA-A*24:02 molecule and the peptide was calculated from the average fluorescent intensity per cell using a method as published in a paper (Udaka et al., Immunogenetics, 51, 816-828, 2000) by the present inventor.

HLA-A*02:06 molecule = biological target: T1, HLA-A*02:06 molecule (Homo sapiens, UniProt P04439, D140Y/D185E/D98H/E176V/E277Q/F33Y/G131W/G231S/I119V/I121R/I166T/I218V/L300P/L318F/N151K/N90K/P208A/P217A/Q86G/Q94H/R138H/R169H/T345S); assay: Binding experiment of peptide to HLA-A*02:06 molecule (RA2.6 cells, flow cytometry); details: for Binding Experiment Data To A*02:06: RA2.6 cells, negative values as printed (apparently log Kd)
T1 construct: expressed in transfected cells; host or cells: RA2.6 cells (mouse TAP-deficient RMAS transfected with HLA-A*02:06 cDNA, Kochi University)
Procedure: The binding capacity of each peptide to the HLA-A*02:06 molecule as the product of HLA-A*02:06 gene was measured using RA2.6 cells (a cell line newly prepared at Kochi University) in which cDNA of the HLA-A*02:06 gene was introduced into RMAS as a mouse TAP (transporter associated with antigen processing)-deficient cell line.
First, the RA2.6 cells were cultured overnight at 26° C. to accumulate the HLA-A*02:06 molecules unbound to the peptide on the cell surface. Any of peptide dilution series was added thereto for binding at 26° C. for 60 minutes.
Subsequently, the mixture was cultured at 35° C. for 4 hours, resulting in the denaturation of the empty HLA-A*02:06 molecule unbound to the peptide and the loss of its steric structure. A fluorescent labeled monoclonal antibody, BB7.2, specifically recognizing a peptide-bound HLA-A*02:06 molecule, was added thereto, which was then incubated on ice for 20 minutes to stain the cells.

[1] = system: CD8T cells from liver cancer patients; assay: Immunity induction test of peptide (IFN-γ ELISPOT / ELISA, peptide-stimulated dendritic cells cocultured with CD8T cells); type: cell-based, human
Procedure: Monocytes were separated from the peripheral blood collected from a hepatocellular cancer patient according to a leukapheresis method. The separated monocytes were cultured for 6 days under addition of 800 U/ml GM-CSF and 500 U/ml IL-4. In addition, 300 U/ml TNF-α was added to the culture solution, which was then cultured for 4 days to induce mature dendritic cells. Subsequently, HSP70 mRNA was introduced thereinto by an electroporation method and thereby dendritic cells having presented an HSP70-derived antigen peptide were prepared.
Dendritic cells into which 1×10^7, 2×10^7, or 3×10^7 HSP70 mRNAs were introduced (HSP70-dendritic cells) were administered into the thigh of the hepatocellular cancer patient by subcutaneous injection (HSP70 dendritic cell therapy). The subcutaneous administration of the HSP70-dendritic cells prepared by the same method was repeated every 3 weeks. […]
Using CD8 Negative Selection Kit (from Miltenyi Biotec), CD8T cells were separated from the medium and counted. […]
A culture supernatant at day 7 after coculture of T cells with dendritic cells pulsed with each of the above peptides was diluted to the 4 levels of ×1, ×5, ×25, and ×125 to identify the dilution level falling within the limit of measurement using Human IFN-γ ELISA MAX Deluxe Set (from BioLegend Inc.). Thereafter, each sample was measured 3 times at the identified dilution level. […]

Row | Sequence | Binding Experiment Data To A*02:01 (HLA-A*02:01 molecule) | Binding Experiment Data To A*24:02 (HLA-A*24:02 molecule) | Binding Experiment Data To A*02:06 (HLA-A*02:06 molecule) | further results
1 | AMTKDNNLL [SEQ ID NO: 9] | −5.56 | −5.492 | −4.276 | 
2 | AQIHDLVLV [SEQ ID NO: 12] | −6.148 |  |  | 
3 | FYPEEISSM [SEQ ID NO: 3] |  | −7.664 |  | 
4 | GVPQIEVTF [SEQ ID NO: 1] |  | −6.451 | −5.13 | 
5 | ITRARFEEL [SEQ ID NO: 10] | −4.326 |  | −5.58 | 
6 | KLLQDFFNG [SEQ ID NO: 4] | −4.959 |  | −5.268 | 
7 | LLLDVAPLS [SEQ ID NO: 8] | −6.06 |  | −6.171 | 
8 | MVLTKMKEI [SEQ ID NO: 6] | −4.586 |  | −5.533 | 
9 | NLLGRFELS [SEQ ID NO: 11] | −4.56 |  | −5.175 | 
10 | NQPGVLIQV [SEQ ID NO: 14] | −5.91 |  | −6.417 | 
11 | SVTNAVITV [SEQ ID NO: 15] | −4.762 | −4.37 | −5.594 | 
12 | VLVGGSTRI [SEQ ID NO: 5] | −4.86 | −6.173 | −5.07 | 
13 | YAFNMKSAV [SEQ ID NO: 13] | −5.091 |  | −5.021 | 
14 | YGAAVQAAI [SEQ ID NO: 7] | −4.904 | −5.502 | −5.372 | immunogenicity (in words) [1]: high immunogenicity; binding to HLA-A*02:01 molecule (in words) (HLA-A*02:01 molecule): strongly binds; binding to HLA-A*24:02 molecule (in words) (HLA-A*24:02 molecule): strongly binds; binding to HLA-A*02:06 molecule (in words) (HLA-A*02:06 molecule): strongly binds
